{"source": "patent US20140221499A1", "about": "“NOVEL RODENT CONTROL AGENTS AND USES THEREOF” (priority 2011, published 2014)", "key": {"olfactory TAARs": {"test_system": "olfactory TAARs", "assay": "TAAR reporter gene assay, panel of mouse and rat TAARs in HEK293 cells", "format": "cell-based", "details": "mouse and rat TAARs", "from_the_text": "Here, we set out to identify agonists for additional mouse and rat TAARs. We examined odor response profiles using a previously established reporter gene assay based on cAMP-dependent odor transduction in olfactory sensory neurons (40, 42). Briefly, TAAR plasmids were transfected into HEK293 cells along with a cAMP-dependent reporter gene encoding secreted alkaline phosphatase (CRE-SEAP). TAARs were expressed both in unmodified form and as fusion proteins with an N-terminal sequence of bovine rhodopsin (‘Rho tag’) that promotes cell surface expression of some chemosensory receptors (35). Transfected cells were incubated with test chemicals, and phosphatase activity was quantified with a fluorescent substrate as a reporter for TAAR activation. In initial experiments, we tested 38 different odorant mixtures containing 244 structurally diverse test chemicals (2-5 μM) for the ability to activate each mTAAR. Subsequently, we tested 73 amines that included known mTAAR agonists and related chemicals for the ability to activate each rTAAR.\nTAAR functional assays. Full Taar coding regions were cloned into pcDNA3.1-(Invitrogen) with or without a 5′ DNA extension of 69 bp encoding the first 20 amino acids of bovine rhodopsin followed by a cloning linker ([…]). Point mutations were introduced in mTAAR7e and mTAAR7f by overlap extension PCR. Functional assays were performed as described (40, 42). Fluorescence was measured on an EnVision plate reader (Perkin Elmer) and SEAP activity graphed as relative fluorescence of a phosphatase substrate."}, "mouse TAAR4": {"target": "T1, mouse TAAR4 (Mus musculus, UniProt Q5QD15)", "T1 construct": "Full Taar coding regions were cloned into pcDNA3.1-(Invitrogen); expressed in transfected cells; host or cells: HEK293", "T1 sequence (Q5QD15 1-347)": "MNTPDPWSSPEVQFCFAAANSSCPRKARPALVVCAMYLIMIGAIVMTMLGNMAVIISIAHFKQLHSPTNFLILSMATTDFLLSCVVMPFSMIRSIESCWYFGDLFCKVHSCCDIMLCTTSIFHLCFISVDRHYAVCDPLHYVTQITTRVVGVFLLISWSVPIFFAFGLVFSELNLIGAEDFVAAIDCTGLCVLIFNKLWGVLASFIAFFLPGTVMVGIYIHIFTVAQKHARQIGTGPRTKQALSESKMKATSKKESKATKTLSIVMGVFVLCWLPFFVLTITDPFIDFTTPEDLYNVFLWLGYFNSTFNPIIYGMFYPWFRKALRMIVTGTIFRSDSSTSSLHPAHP", "assay": "TAAR4 CRE-SEAP reporter gene assay in transfected HEK293 cells", "format": "cell-based", "details": "concentration series of pure chemicals", "protocol": "HEK293 cells were co-transfected with TAAR expression plasmids and a cAMPdependent reporter gene encoding secreted alkaline phosphatase (CRE-SEAP). Transfected cells were incubated with urine extracts from different mammalian species, and phosphatase activity was quantified with a fluorescent substrate as a reporter for TAAR activation.\nTest urines were diluted in serum-free media containing penicillin G (100 Units/ml, Invitrogen) and streptomycin sulfate (100 mg/ml, Invitrogen). SEAP activity is measured as fluorescence resulting from dephosphorylation of a substrate, 4-methylumbelliferyl phosphate. Fluorescence values were obtained using an EnVision plate reader (Perkin Elmer) and are reported directly without normalization."}, "[1]": {"test_system": "corticosterone levels in rat plasma", "assay": "Plasma corticosterone assay after odor exposure", "format": "in vivo", "details": "30 min exposure, 10% amine or 2% TMT, 1 ml, ±SEM", "method": "Avoidance to 2-phenylethylamine in rats was associated with acute changes in circulating levels of the stress hormone corticosterone.\nPlasma corticosterone assay. […] Corticosterone levels were measured in duplicate using a competitive radioactive binding assay as described previously (Pryce C R, Bettschen D, Bahr N I, & Feldon J (2001) Comparison of the effects of infant handling, isolation, and nonhandling on acoustic startle, prepulse inhibition, locomotion, and HPA activity in the adult rat. Behav Neurosci 115(1):71-83)."}, "mouse TAAR3": {"target": "T2, mouse TAAR3 (Mus musculus, UniProt Q5QD16)", "T2 construct": "Full Taar coding regions were cloned into pcDNA3.1-(Invitrogen); expressed in transfected cells; host or cells: HEK293", "T2 sequence (Q5QD16 1-343)": "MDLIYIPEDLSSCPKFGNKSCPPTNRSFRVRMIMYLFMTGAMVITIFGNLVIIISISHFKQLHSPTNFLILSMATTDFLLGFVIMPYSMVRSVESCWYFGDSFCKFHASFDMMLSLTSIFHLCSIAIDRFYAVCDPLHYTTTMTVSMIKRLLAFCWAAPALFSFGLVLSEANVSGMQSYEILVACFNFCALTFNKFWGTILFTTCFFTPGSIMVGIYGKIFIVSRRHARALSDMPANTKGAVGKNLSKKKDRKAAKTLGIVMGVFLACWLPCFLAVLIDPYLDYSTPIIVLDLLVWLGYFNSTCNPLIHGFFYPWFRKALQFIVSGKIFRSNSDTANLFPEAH", "assay": "TAAR3 CRE-SEAP reporter gene assay in transfected HEK293 cells", "format": "cell-based", "method": "Reporter gene assays were performed on HEK293 cells transfected with mouse TAAR3 and CRE-SEAP.\nTAAR functional assays. Reporter gene assays were performed as described (Liberles S D & Buck LB (2006) A second class of chemosensory receptors in the olfactory epithelium. Nature 442(7103):645-650) with the following minor modifications. Test urines were diluted in serum-free media containing penicillin G (100 Units/ml, Invitrogen) and streptomycin sulfate ([…], Invitrogen). SEAP activity is measured as fluorescence resulting from dephosphorylation of a substrate, 4-methylumbelliferyl phosphate. Fluorescence values were obtained using an EnVision plate reader (Perkin Elmer) and are reported directly without normalization. All TAARs, except mouse TAAR3, were expressed as fusion proteins with an N-terminal sequence of bovine rhodopsin (Krautwurst D, Yau K W, & Reed R R (1998) Identification of ligands for olfactory receptors by functional expression of a receptor library. Cell 95(7):917-926)."}, "[2]": {"test_system": "mouse olfactory sensory neurons", "assay": "Confocal calcium imaging of olfactory sensory neurons in tissue slices", "format": "cell-based", "details": "dorsal olfactory epithelium", "method": "The mammalian olfactory system encodes odor identity using combinations of olfactory receptors (11). […] Here, we used a confocal imaging strategy to record cytosolic calcium transients of single sensory neurons in real time. Viability of analyzed neurons was determined after odor exposures by KCl-induced depolarization.\nConfocal calcium imaging of olfactory sensory neurons in tissue slices. Recordings were performed as described (Spehr M, et al. (2006) Essential role of the main olfactory system in social recognition of major histocompatibility complex peptide ligands. J Neurosci 26(7):1961-1970) with the following modifications. For calcium sensitive dye loading, slices of olfactory epithelium were incubated (30 min, 4° C.) in HEPES solution (in mM: 145 NaCl, 5 KCl, 1 CaCl2, 1 MgCl2, 10 HEPES; pH=7.3) containing Fluo-4/AM (2 μM; Molecular Probes). Slices were transferred to a recording chamber (Slice Mini Chamber, Luigs & Neumann, Ratingen, Germany) and visualized using a Leica DM6000CFS confocal fixed stage upright microscope (Leica Microsystems, Mannheim, Germany) equipped with an apochromatic water immersion objective (HC X APO L20x/1.0 W) and infrared-optimized differential interference contrast (DIC) optics. Slices were anchored via stainless steel wires with 0.1 mm lycra threads and continuously superfused with HEPES-buffered solution. Changes in cytosolic calcium were monitored over time at 1.0 Hz frame rate. Stimulus application as well as solution exchange during inter-stimulus intervals was achieved by a custom-made, pressure-driven focal application device consisting of a software-controlled valve bank connected to a 7-in-1 ‘perfusion pencil’. Rhodamine application controlled for uniform flow and even stimulus application throughout the epithelial sensory surface. Offline analysis of time-lapse experiments was performed using LAS-AF software (Leica). All cells in a given field of view were marked as individual regions of interest (ROIs), and the relative fluorescence intensity for each ROI was calculated and processed as a function of time."}, "Sprague-Dawley rats": {"test_system": "Sprague-Dawley rats", "assay": "Open field odor avoidance", "format": "in vivo, rat", "details": "ten minute exposure, 12 animals ±SEM; 1 ml urine or 5 μl amine", "method": "We next examined behavioral responses of rodents to 2-phenylethylamine. […] Behaviors of rats in a square-shaped arena were recorded and analyzed following placement of test stimuli in a pseudorandom corner (FIG. 5A). […] Thus, 2-phenylethylamine, in the absence of other predator odor cues, was sufficient to evoke rat avoidance behavior.\nOpen field behavioral analysis. Rat behavioral responses to odors in the open field were measured as described previously (Fendt M (2006) Exposure to urine of canids and felids, but not of herbivores, induces defensive behavior in laboratory rats. Journal of chemical ecology 32(12):2617-2627) with the following modifications. Adult Sprague-Dawley rats (240-340 g; Janvier, Le Genest St. Isle, France) were placed in the center of a 45 cm×45 cm Plexiglass arena (TSE Systems, Bad Homburg, Germany) equipped with infrared sensors (distance 14 mm, illumination 80-120 lux). The arena contained glass dishes (36 mm) in each corner, with one dish containing test stimuli. Prior to testing, animals were habituated to the arena by introducing them for three consecutive days. […] Location of the rats was automatically recorded using the infrared detectors and analyzed (TSE Systems software). Statistical significance was measured using Wilcoxon Signed Test (**p<0.01; comparison with chance level (25%)). […]"}}}
{"smiles": "CN1CCCCC1", "note": "[1-methylpiperidine, N-methylpiperidine]", "values": [{"measurement": "TAAR activation", "setting": "olfactory TAARs", "result": "activated TAARs"}]}
{"smiles": "OCCc1ccccc1", "note": "[2-phenylethanol]", "values": [{"measurement": "TAAR4 activation", "setting": "mouse TAAR4", "result": "did not activate TAAR4 at any concentration tested"}]}
{"smiles": "NCCCc1ccccc1", "note": "[3-phenylpropylamine]", "values": [{"measurement": "TAAR4 activation", "setting": "mouse TAAR4", "result": "activates TAAR4 at high concentrations"}]}
{"smiles": "CCCCN(C)C", "note": "[N,N-dimethylbutylamine]", "values": [{"measurement": "TAAR activation", "setting": "olfactory TAARs", "result": "activated TAARs"}]}
{"smiles": "CCCCCCCCN(C)C", "note": "[N,N-dimethyloctylamine]", "values": [{"measurement": "TAAR activation", "setting": "olfactory TAARs", "result": "activated TAARs"}]}
{"smiles": "CC1=NC(C)SC1C", "note": "(stereo not shown) [TMT, 2,5-dihydro-2,4,5-trimethylthiazole]", "values": [{"measurement": "plasma levels of corticosterone", "setting": "[1]", "result": "238 ± 21", "unit": "ng/mL"}]}
{"smiles": "NCc1ccccc1", "note": "[benzylamine, reference compound]", "values": [{"measurement": "EC50", "setting": "mouse TAAR3", "result": "~200", "unit": "µM"}, {"measurement": "plasma levels of corticosterone", "setting": "[1]", "result": "130 ± 32", "unit": "ng/mL"}, {"measurement": "carnivore odor-selective neurons activated by 2-phenylethylamine that also responded to benzylamine", "setting": "[2]", "result": "0/1268"}, {"measurement": "TAAR4 activation", "setting": "mouse TAAR4", "result": "did not similarly activate TAAR4"}, {"measurement": "percentage of time rats are located in the odor quadrant", "setting": "Sprague-Dawley rats", "result": "29±7.2", "unit": "%"}]}
{"smiles": "NC1CCCCC1", "note": "[cyclohexylamine]", "values": [{"measurement": "TAAR activation", "setting": "olfactory TAARs", "result": "activated TAARs"}]}
{"smiles": "CC(C)CCN", "note": "[isoamylamine]", "values": [{"measurement": "TAAR3 detection", "setting": "mouse TAAR3", "result": "preferred ligand"}, {"measurement": "TAAR activation", "setting": "olfactory TAARs", "result": "activated TAARs"}]}
{"smiles": "COc1ccc2[nH]cc(CCN(C)C)c2c1", "note": "[ligand 7, 5-methoxy-N,N-dimethyltryptamine]", "values": [{"measurement": "TAAR activation", "setting": "olfactory TAARs", "result": "activated different TAAR7 paralogs"}]}
{"smiles": "CCCCNC", "note": "[methylbutylamine]", "values": [{"measurement": "TAAR activation", "setting": "olfactory TAARs", "result": "activated TAARs"}]}
